Test [1] deals with CRC cell lines (HT-29, LS411N, and SW620). The experiment in a line: Trypan Blue exclusion viability assay, CRC cell lines. Type of test: cell-based, human. The settings on record: 10 μM, 48 hours. The procedure:
FIGS. 4A-4F show AP-4-139B is efficacious as a single agent against human CRC in vitro and in vivo. FIG. 4A: Three CRC cell lines (HT-29, LS411N, and SW620) were treated with 10 μM of PET-16 or AP-4-139B for 48 hours. Cell were then subjected to viability assays using Trypan Blue exclusion. *** p<0.001. […] FIGS. 4B-4C: A panel of six CRC cell lines (SW620, HT-29, HCT 116+/−p53, RKO, and LS411N) were plated at a density of 1,000 cells per well in 96-well plates. The next day, cells were treated with the indicated inhibitors for 72 hours. Cells were then subjected to the Alamar Blue cell viability assays. Shown are representative IC50 values of an average of six technical replicates and two biological replicates. FIG. 4D: 2.5×10^6 HT-29 cells were injected subcutaneously into the right flank of NSG mice. Once tumors reached an approximate volume of 100 mm^3, mice were separated randomly into two groups: control vs. AP-4-139B. Mice were treated with 12.5 mg/kg AP-4-139B three times a week. All mice were euthanized 22 days after the start of treatment. Tumor volumes were recorded using digital calipers and using the formula v=length×width^2×0.52. *** p<0.001. n=10 mice per group. FIG. 4E: Immunohistochemistry (IHC) analysis of HT-29 xenograft tumors treated with AP-4-139B. […]

Test [2] relates to IMR90 and CCD 841 CoN cells. The test is described as follows: Seahorse XF Cell Mito Stress Test, normal cells. Type of test: cell-based, human. As to conditions: 500 nM (sublethal), 24 hours. The protocol:
FIG. 2A: IMR90 cells (non-transformed fibroblasts), 1205Lu (melanoma), and HT-29 (CRC) cancer cells were treated with sub-lethal doses (500 nM) of the HSP70 inhibitors PET-16 (positive control) or AP-4-139B for 24 hours. Cells were then subjected to the Seahorse Mito Stress Test Assay. Injections were Oligomycin (1 μM, line A), FCPP (0.5-1 μM, line B), and Rotenone/Antimycin A (1 μM, line C). Each graphical representation indicates the mean±standard deviation of a minimum of 5 technical replicates. […] Each experiment was performed in triplicate and independently repeated twice. FIGS. 2B-2D: Basal Oxygen Consumption Rate (ORC) (FIG. 2B), Maximal OCR (FIG. 2C), and ATP production (FIG. 2D) were analyzed in IMR90 fibroblasts, non-transformed colonic epithelial cells (CCD 841 CoN), 1205Lu melanoma cells and HT-29 CRC cells, in the presence or absence of 500 nM HSP70 inhibitors or negative control (VY-3-277). All experiments were performed in triplicate, with each group containing 5-6 technical replicates. ** p<0.01, *** p<0.001, n.s. not significant.
The XF Cell Mito Stress Test was performed. […] For extracellular ATP release, ATP was measured using the CellTiter-Glo Kit (Promega catalog #G7570). […] 10 μl of CellTiter-Glo Reaction Mix was then mixed with 10 μl of culture media; the luminescence signal was detected using a luminometer.

As for `c1ccc(-c2cn3nc(CCCCCC[P+](c4ccccc4)(c4ccccc4)c4ccccc4)sc3n2)cc1` [AP-4-139B, Triphenyl(6-(6-phenylimidazo[2,1-b][1,3,4]thiadiazol-2-yl)hexyl)phosphonium bromide], the “decrease of CRC cell viability” value in test [1] is listed as “markedly more cytotoxic”. In test [2], the “mitochondrial function in normal cells” value is given as “largely unaffected”.

As to `C(#C[P+](c1ccccc1)(c1ccccc1)c1ccccc1)c1ccccc1` [PET-16, Triphenyl(phenylethynyl)phosphonium bromide, reference compound], the “decrease of CRC cell viability” value in test [1] is on record as “modest ability to decrease CRC cell viability”. Besides, the “mitochondrial function in normal cells” value in test [2] was “largely unaffected”.

For the origin of these results see US12616753B2, “HSP70 inhibitors and methods of using same” (THE WISTAR INSTITUTE, priority 2020, dated 2026).
